# US20230150951A1, “2,5- OR 2,6-DISUBSTITUTED HYDROQUINONE DERIVATIVES WITH AT LEAST ONE CARBOXY, SULFO OR AMIDO GROUP USEFUL AS MEDICAMENTS” (OM PHARMA SA, priority 2020, published 2023)
# Entries after “also recorded” stand apart in the source; their conditions may differ.
# How the values were obtained:
# [1] = test system: acute pancreatitis murine model; experiment: Caerulein-induced acute pancreatitis murine model; type: in vivo, Balb/c mice; parameters: Serum IL33 level / Serum TGF-B level: unit not given here
# [2] = test system: DBA/2 mouse strain with STZ induction of diabetes; experiment: STZ-induced diabetic retinopathy and nephropathy model in DBA/2 mice; type: in vivo; details: one and two weeks, FIG. 9
# Method: Therapeutic efficacy of the compounds according to the present invention was assessed using diabetic mouse model using the DBA/2 mouse strain with STZ induction of diabetes and follow diabetic retinopathy including kidney damage. Five weeks after induction of diabetes via low dose STZ injection for 5 consecutive days, the urinary albumin:Cr ratio is […] compared to 36.9 for age-matched controls.
# For treatment of diabetic nephropathy, DBA/2 mice were induced with STZ (low dose for 5 consecutive days).
# Treatment was performed for four weeks (IV dosing) with weekly assessment of blood glucose and urine albumin/creatinine levels. At the end of the treatment period animals, the following samples were taken: • Blood for measurement of glucose and Blood Urea Nitrogen (BUN) • Blood for measurement of serum creatinine • Urine for final albumin/creatinine ratio. • Kidney was resected and FFPE: Picro-Sirius Red, Masson's Trichrome and H&E staining was carried out to identify areas of fibrosis, along with evidence of Mesangial sclerosis, Arteriolar hyalinosis, Glomerular Basal Membrane (GBM) thickening
# To assess compound effect on diabetic retinopathy, animals had weekly images taken via Fundus Camera. Immediately prior to sacrifice, animals were injected with FITC-dextran via tail vein. During sampling, the eyes were sampled and fixed in formalin. Retinal Flatmounts were prepared and examined fluorescently looking at compound effects on vascularity and leakiness of vessels (indicted by high background staining).
# [3] = test system: STZ-induced diabetes model; experiment: STZ-induced diabetic nephropathy, kidney disease and retinopathy model (28 days treatment)
# Method: A total of 70 female CD-1 mice aged 5-7 weeks weighing approximately 25-30 g were used for the study. These were purchased from Charles River, UK and had 7 days acclimatization period. Animals were housed in IVC cages (up to 5 per cage) with individual mice identified by tail mark. All animals were allowed free access to a standard certified commercial diet and sanitised water during the study. The holding room was maintained under standard conditions: 18-24° C., 55-70% humidity and a 12 h light/dark cycle.
# Mice were starved for 6 hours prior to injection. One week after completion of induction glucose levels were monitored and mice with levels less than 15 mml/L (280 mg/gL) were removed from the study as they had not developed the ideal severity of diabetes. Glucose levels were be monitored weekly and 5 weeks after STZ induction biochemical assessment of renal injury was carried out by measuring urine albumin and creatinine levels and confirming they were within the desired range. After successful completion of this stage animals were assigned to treatment groups.
# Treatment continued for 4 weeks (28 days) with weekly measurement of blood glucose and urine albumin/creatinine. The study schedule is detailed below looking at weekly (week 5 to 9) blood glucose levels, urine albumin creatinie ratios, and terminal (week 9) blood chemistry and cytokines, kidney histology and eye-retinal leakage.
# Urine Albumin: Creatinine (ALB: CRE): Urine was collected weekly and pooled for each treatment group.
# ELISAs: At the end of the treatment period blood was collected and processed to serum. Serum levels of CRP, TGF-β, IL-6 and TNF-α were quantified using commercially available ELISA kits, results are shown in Table 56.
# [4] = 1st experiment, caerulein induced, 15 mg/kg IV, Ib-010a and IVc-059a 150 mg/kg PO, Pirfenidone 40 mg/kg IV
# [5] = 1st experiment, terminal pancreatic tissue, 15 mg/kg IV, Ib-010a and IVc-059a 150 mg/kg PO, Pirfenidone 40 mg/kg IV
# [6] = 1st experiment, terminal serum, 15 mg/kg IV, Ib-010a and IVc-059a 150 mg/kg PO, Pirfenidone 40 mg/kg IV
# [7] = day 28 of treatment (week 9), 15 mg/kg IV, Captopril 50 mg/kg PO
# [8] = day 28 of treatment (week 9), serum, 15 mg/kg IV, Captopril 50 mg/kg PO
smiles,measurement,setting,value
"O=C(O)c1cc(O)c(C(=O)Nc2ccccc2C(=O)O)cc1O [Ia-001a, 4-(2-carboxyphenylaminocarbonyl)-2,5-dihydroxybenzoic acid]",Acinar cell necrosis (group mean score),[1]; [4],0.9
same,Haemorrhage (group mean score),[1]; [4],1.1
same,Interstitial oedema (group mean score),[1]; [4],1.3
same,Leukocyte infiltration (group mean score),[1]; [4],3.0
same,Mean terminal BW (% of initial),[1]; [4],90.3 % of initial
same,Mean terminal pancreas weight,[1]; [4],0.083 g
same,Pancreas histopathology observations (H&E),[1]; [4],Oedema observed throughout pancreas; also recorded: Haemorrhage observed; also recorded: Mild acinar cell less necrosis observed; also recorded: Leukocyte infiltration throughout; also recorded: Abnormal islet morphology observed; also recorded: Disruption to the basophilic region
same,Schmidt Score (H&E),"[1]; 1st experiment, caerulein induced, 15 mg/kg IV, Ib-010a and IVc-059a 150 mg/kg PO, Pirfenidone 40 mg/kg IV, induced + vehicle = 10, non-induced = 0",6.3
same,Pancreas IL33 level,[1]; [5],330 ± 162
same,Pancreas MPO activity,[1]; [5],3.76
same,Pancreas TGF-B level,[1]; [5],592 ± 358
same,Serum IL33 level,[1]; [6],39.52
same,Serum TGF-B level,[1]; [6],8.69
same,Serum amylase level,[1]; [6],34.07
same,Serum lipase level,[1]; [6],6.72
same,pancreatic tissue levels of IL33,"[1]; first experiment, IV, compared to the induced group",significant decrease
same,Blood glucose level,[2],significantly reduced
same,Serum CRP,"[3]; 28 days of treatment, vs vehicle induced controls",significantly reduced
same,Serum TNF-α,"[3]; 28 days, p<0.05",significantly lower than vehicle induced controls
same,Mean day 0 blood glucose Concentration (mmol/L) (SD),"[3]; day 0, 15 mg/kg IV, Captopril 50 mg/kg PO",25.7 (6.3) mmol/L
same,Mean day 28 blood glucose Concentration (mmol/L) (SD),"[3]; day 28, 15 mg/kg IV, Captopril 50 mg/kg PO",31.6 (3.8) mmol/L
same,Blood BUN,[3]; [7],25.1 ± 3.1
same,"Disease Score (kidney, H&E)",[3]; [7],7 ± 1
same,Eye area (retinal flatmount area covered by vasculature),[3]; [7],9.9 ± 1.9
same,Trichrome staining (Kidney fibrosis),[3]; [7],1.87 ± 0.65
same,Blood CRP,[3]; [8],4759 ± 1181
same,Blood IL-6,[3]; [8],114.16 ± 29.96
same,Blood TGF-beta,[3]; [8],15.54 ± 2.8
same,Blood TNF-alpha,[3]; [8],342.3 ± 15.6
same,Urine albumine creatinine ratio (ALB:CRE),"[3]; day 28 of treatment (week 9), urine pooled per group, 15 mg/kg IV, Captopril 50 mg/kg PO",35.68
